The record followed here is article PMC12337130 (Nature microbiology, 2025).

To fix the notation:
B1: GST-vBcl-2 (1–146) with N67D/V117A (domain or fragment)
chain: MDEDVLPGEVLAIEGIFMACGLNEPEYLYHPLLSPIKLYITGLMRDKESLFEAMLANVRFHSTTGIDQLGLSMLQVSGDGNMNWGRALAILTFGSFVAQKLSNEPHLRDFALAVLPAYAYEAIGPQWFRARGGWRGLKAYCTQVLT
B2: BID BH3 peptide (peptide)
peptide: EDIIRNIARHLAQVGDSMDR

In assay [1] the target is vBcl-2 (Human gammaherpesvirus 8, UniProt Q76RI8, N67D/V117A). Description: surface plasmon resonance. The assay is classed as binding. On the technique in general: SPR reads the build-up and loss of mass on a sensor chip optically.
Assay [2] has as its target vBcl-2–NM23-H2 complex (Human gammaherpesvirus 8, UniProt Q76RI8, N67D/V117A). Put plainly: HTRF protein-protein interaction assay. Format: binding. Background: TR-FRET usually uses a lanthanide donor and a delayed reading to cut background.
In assay [3] the target is His-NM23-H2 (human, UniProt P22392 1-152). Put plainly: AlphaScreen or HTRF. For orientation: Bead proximity is the source of the signal in Alpha formats.
Assay [4] deals with B1. Put plainly: AlphaScreen or HTRF.

For orientation: Kd means a measure of binding affinity in units of concentration. Read a high Kd as lower affinity. By IC50 is commonly meant the concentration at which inhibition is half-maximal.

In turn, `Cc1nc(Nc2nc3ccccc3o2)[nH]c(=O)c1C` [VBNI-1, 2-(Benzo[d]oxazol-2-ylamino)-5,6-dimethylpyrimidin-4(3H)-one] returned a dissociation constant (Kd) in assay [1] of 875 nM. Besides, the IC50 in assay [2] was around 64 nM.
In the case of B1, in assay [3], the binding result is recorded as “binds”.
Consider B2, for which the binding result in assay [4] is recorded as “binds”.
